Measured values reported in patent US20250375406A1, “TREATMENT OF NON-ALCOHOLIC STEATOHEPATITIS AND NON-ALCOHOLIC FATTY LIVER DISEASE” (VEROSCIENCE LLC, priority 2022, published 2025).

Tests used:
NASH = test: L-DOPA plus pantethine with or without curcumin in high fat high fructose diet mice, Study 2 (Example 4); format: in vivo; settings: vehicle value assigned 1.0 (maximum score); 3 weeks treatment
From the text: After 3 weeks on the test diet, animals were sacrificed for analyses of body weight, body fat, blood glucose, and liver physiology.

NASH Mice = test: Treatment of NASH mice (high fat high fructose diet) with bromocriptine citrate plus pantethine with or without curcumin, Study 1; format: in vivo; settings: vehicle value assigned 1.0 (maximum score); 6 weeks treatment
Description: The curcumin-phosphatidylcholine mixture is stirred until clear while being heated to between 50° C. to 60C. Optionally, add up to 10 ml of water and stir until solution is homogeneous)) (100 mg/kg). […] After 6 weeks on the test diet and treatment, animals were sacrificed for analyses of body weight, body fat, blood glucose, and liver physiology.

Compound | NASH propensity score (liver weight x body weight x body fat x blood glucose level) (NASH) | NASH propensity scale score (liver weight x body weight x body fat x liver triglyceride content x blood glucose level) (NASH Mice)
N[C@@H](Cc1ccc(O)c(O)c1)C(=O)O [L-DOPA, 3,4-dihydroxyphenylalanine] | 0.61 | –
CC(C)C[C@H]1C(=O)N2CCC[C@H]2[C@]2(O)O[C@](NC(=O)[C@@H]3C=C4c5cccc6[nH]c(Br)c(c56)C[C@H]4N(C)C3)(C(C)C)C(=O)N12 [bromocriptine, 2-bromo-α-ergocriptine] | – | 0.46
